Experimental data published in ChEMBL document CHEMBL3421589, “Regioselective chemical and rapid enzymatic synthesis of a novel redox – Antiproliferative molecular hybrid” (Eur J Med Chem, 2015).
Active and inactive are the calls of the source. The rule behind the calls is not given here.

Legend:
A549 [1] = experiment: Cytotoxicity against human A549 cells after 48 hrs by SRB assay; format: functional, cell-based; conditions: for IC50: A549, 48 h
A549 [2] = experiment: Ratio of Gemcitabine IC50 to Compound IC50 for human A549 cells after 48 hrs by SRB assay; format: functional
MRC5 [3] = experiment: Cytotoxicity against human MRC5 cells after 48 hrs by SRB assay; format: functional, cell-based; conditions: for IC50: MRC5, 48 h
A549 [4] = experiment: Induction of H2O2 level in human A549 cells at 1 uM after 30 mins by flow cytometry; format: functional, cell-based
T-24 [5] = experiment: Ratio of Gemcitabine IC50 to Compound IC50 for human T24 cells after 48 hrs by SRB assay; format: functional
T-24 [6] = experiment: (§1) Cytotoxicity against human T24 cells after 48 hrs by SRB assay; format: functional, cell-based
[7] = as §1; format: functional, cell-based; conditions: T-24, 48 h
MRC5 [8] = experiment: Ratio of Gemcitabine IC50 to Compound IC50 for human MRC5 cells after 48 hrs by SRB assay; format: functional
A549 [9] = experiment: Induction of H2O2 level in human A549 cells at 1 uM after 5 mins by flow cytometry; format: functional, cell-based
A549 [10] = experiment: Cytotoxicity against human A549 cells assessed as dose reduction index ratio treated at sequential combination at 2:1 compound to GEM ratio after 48 hrs by SRB assay in presence of GEM; format: functional
A549 [11] = experiment: Cytotoxicity against human A549 cells assessed as dose reduction index ratio treated at sequential combination at 5:1 compound to GEM ratio after 48 hrs by SRB assay in presence of GEM; format: functional
A549 [12] = experiment: (§2) Cytotoxicity against human A549 cells assessed as inhibition fraction treated at sequential combination LA + compound sequent. compound for 24 hrs, LA + compound for 24 hrs additional, total 48 hrs 2:1 and 5:1 compound to GEM ratio after 48 hrs by SRB assay in presence of GEM; format: functional
A549 [13] = experiment: Cytotoxicity against human A549 cells assessed as inhibition fraction treated at 5:1 compound to GEM ratio after 48 hrs by SRB assay in presence of GEM; format: functional
A549 [14] = experiment: Cytotoxicity against human A549 cells assessed as inhibition fraction treated at 2:1 compound to GEM ratio after 48 hrs by SRB assay in presence of GEM; format: functional
A549 [15] = experiment: Cytotoxicity against human A549 cells assessed as dose reduction index ratio treated at simultaneous combination at 0.8 fraction inhibition after 48 hrs by SRB assay in presence of alpha-lipoic acid; format: functional
[16] = Cytotoxicity against human T24 cells treated at 2:1 and 5:1 alpha-lipoic acid to compound ratio after 48 hrs by SRB assay in presence of alpha-lipoic acid; format: functional, cell-based; conditions: T-24, 48 h
A549 [17] = experiment: Induction of H2O2 level in human A549 cells at 1 uM after 5 to 30 mins by flow cytometry; format: functional, cell-based
MRC5 [18] = experiment: Cytotoxicity against human MRC5 cells treated at 2:1 and 5:1 alpha-lipoic acid to compound ratio after 48 hrs by SRB assay in presence of alpha-lipoic acid; format: functional, cell-based; conditions: MRC5, 48 h
A549 [19] = experiment: Cytotoxicity against human A549 cells treated at LA + compound sequent. LA for 24 hrs), LA + GEM (24 hrs additional, total 48 hrs) 5:1 alpha-lipoic acid to compound ratio after 48 hrs by SRB assay in presence of alpha-lipoic acid; format: functional, cell-based
A549 [20] = experiment: as §2, with “5:1 alpha-lipoic acid to” for “5:1”, “compound” for “compound to GEM”, “alpha-lipoic acid” for “GEM”; format: functional
A549 [21] = experiment: Cytotoxicity against human A549 cells assessed as combination index treated at 5:1 alpha-lipoic acid to compound ratio after 48 hrs by SRB assay in presence of alpha-lipoic acid; format: functional
A549 [22] = experiment: Cytotoxicity against human A549 cells assessed as dose reduction index ratio treated at sequential combination at 2:1 alpha-lipoic acid to compound ratio after 48 hrs by SRB assay in presence of alpha-lipoic acid; format: functional
[23] = Cytotoxicity against human T24 cells treated at LA + compound sequent. LA for 24 hrs), LA + GEM (24 hrs additional, total 48 hrs) 5:1 alpha-lipoic acid to compound ratio after 48 hrs by SRB assay in presence of alpha-lipoic acid; format: functional, cell-based; conditions: T-24
MRC5 [24] = experiment: Cytotoxicity against human MRC5 cells treated at LA + compound sequent. LA for 24 hrs), LA + GEM (24 hrs additional, total 48 hrs) 2:1 alpha-lipoic acid to compound ratio after 48 hrs by SRB assay in presence of alpha-lipoic acid; format: functional, cell-based
A549 [25] = experiment: Cytotoxicity against human A549 cells assessed as dose reduction index ratio treated at simultaneous combination at 0.6 fraction inhibition after 48 hrs by SRB assay in presence of alpha-lipoic acid; format: functional
A549 [26] = experiment: Cytotoxicity against human A549 cells treated at LA + compound sequent. LA for 24 hrs), LA + GEM (24 hrs additional, total 48 hrs) 2:1 alpha-lipoic acid to compound ratio after 48 hrs by SRB assay in presence of alpha-lipoic acid; format: functional, cell-based
A549 [27] = experiment: Cytotoxicity against human A549 cells assessed as combination index treated at 2:1 alpha-lipoic acid to compound ratio after 48 hrs by SRB assay in presence of alpha-lipoic acid; format: functional
A549 [28] = experiment: Cytotoxicity against human A549 cells assessed as dose reduction index ratio treated at simultaneous combination at 5:1 alpha-lipoic acid to compound ratio after 48 hrs by SRB assay in presence of alpha-lipoic acid; format: functional
A549 [29] = experiment: Cytotoxicity against human A549 cells treated at LA + compound sequent. compound for 24 hrs, LA + compound for 24 hrs additional, total 48 hrs 2:1 and 5:1 alpha-lipoic acid to compound ratio after 48 hrs by SRB assay in presence of alpha-lipoic acid; format: functional, cell-based
MRC5 [30] = experiment: Cytotoxicity against human MRC5 cells assessed as dose reduction index ratio treated at simultaneous combination at 2:1 alpha-lipoic acid to compound ratio after 48 hrs by SRB assay in presence of alpha-lipoic acid; format: functional
A549 [31] = experiment: Cytotoxicity against human A549 cells assessed as dose reduction index ratio treated at sequential combination at 5:1 alpha-lipoic acid to compound ratio after 48 hrs by SRB assay in presence of alpha-lipoic acid; format: functional
MRC5 [32] = experiment: Cytotoxicity against human MRC5 cells assessed as dose reduction index ratio treated at simultaneous combination at 5:1 alpha-lipoic acid to compound ratio after 48 hrs by SRB assay in presence of alpha-lipoic acid; format: functional
MRC5 [33] = experiment: Cytotoxicity against human MRC5 cells assessed as dose reduction index ratio treated at sequential combination at 5:1 alpha-lipoic acid to compound ratio after 48 hrs by SRB assay in presence of alpha-lipoic acid; format: functional
MRC5 [34] = experiment: Cytotoxicity against human MRC5 cells treated at LA + compound sequent. LA for 24 hrs), LA + GEM (24 hrs additional, total 48 hrs) 5:1 alpha-lipoic acid to compound ratio after 48 hrs by SRB assay in presence of alpha-lipoic acid; format: functional, cell-based
A549 [35] = experiment: Cytotoxicity against human A549 cells assessed as combination index treated at sequential combination LA + compound sequent. compound for 24 hrs, LA + compound for 24 hrs additional, total 48 hrs 2:1 and 5:1 alpha-lipoic acid to compound ratio after 48 hrs by SRB assay in presence of alpha-lipoic acid; format: functional
MRC5 [36] = experiment: Cytotoxicity against human MRC5 cells assessed as dose reduction index ratio treated at sequential combination at 2:1 alpha-lipoic acid to compound ratio after 48 hrs by SRB assay in presence of alpha-lipoic acid; format: functional
A549 [37] = experiment: Cytotoxicity against human A549 cells assessed as inhibition fraction treated at 5:1 alpha-lipoic acid to compound ratio after 48 hrs by SRB assay in presence of alpha-lipoic acid; format: functional
A549 [38] = experiment: Cytotoxicity against human A549 cells assessed as inhibition fraction treated at 2:1 alpha-lipoic acid to compound ratio after 48 hrs by SRB assay in presence of alpha-lipoic acid; format: functional
A549 [39] = experiment: Cytotoxicity against human A549 cells treated at 2:1 and 5:1 alpha-lipoic acid to compound ratio after 48 hrs by SRB assay in presence of alpha-lipoic acid; format: functional, cell-based; conditions: A549, 48 h
[40] = Cytotoxicity against human T24 cells treated at LA + compound sequent. LA for 24 hrs), LA + GEM (24 hrs additional, total 48 hrs) 2:1 alpha-lipoic acid to compound ratio after 48 hrs by SRB assay in presence of alpha-lipoic acid; format: functional, cell-based; conditions: T-24
[41] = Cytotoxicity against human T24 cells treated at LA + compound sequent. compound for 24 hrs, LA + compound for 24 hrs additional, total 48 hrs 2:1 and 5:1 alpha-lipoic acid to compound ratio after 48 hrs by SRB assay in presence of alpha-lipoic acid; format: functional, cell-based; conditions: T-24
MRC5 [42] = experiment: Cytotoxicity against human MRC5 cells treated at LA + compound sequent. compound for 24 hrs, LA + compound for 24 hrs additional, total 48 hrs 2:1 and 5:1 alpha-lipoic acid to compound ratio after 48 hrs by SRB assay in presence of alpha-lipoic acid; format: functional, cell-based

Nc1ccn([C@@H]2O[C@H](COC(=O)CCCC[C@@H]3CCSS3)[C@@H](O)C2(F)F)c(=O)n1
inhibition (A549 [1]): Dose-dependent effect
IC50 (A549 [1]): < 4.4 nM
Ratio (A549 [2]): 1.54
inhibition (MRC5 [3]): Dose-dependent effect
IC50 (MRC5 [3]): 5 nM
Activity (A549 [4]): Active
Ratio (T-24 [5]): 1.3
inhibition (T-24 [6]): Dose-dependent effect
IC50 [7]: 5.3 nM
Ratio (MRC5 [8]): 1.24

O=C(O)CCCCC1CCSS1 (stereo not drawn) [LIPOIC ACID, ALPHA]
inhibition (A549 [1]): Dose-dependent effect
IC50 (A549 [1]): > 100000 nM
Activity (A549 [9]): Active
inhibition (MRC5 [3]): Dose-dependent effect
IC50 (MRC5 [3]): > 100000 nM
inhibition (T-24 [6]): Dose-dependent effect
IC50 [7]: > 100000 nM
Inhibition_index (A549 [10]): 1243.87
Inhibition_index (A549 [11]): 488.47
Ratio (A549 [12]): 0.85
Ratio (A549 [13]): 0.9
Ratio (A549 [14]): 0.8
Inhibition_index (A549 [15]): 1572.29

Nc1ccn([C@@H]2O[C@H](CO)[C@@H](O)C2(F)F)c(=O)n1 [GEMCITABINE]
inhibition (A549 [1]): Dose-dependent effect
IC50 (A549 [1]): 6.8 nM
IC50 [16]: < 3.9 nM
Activity (A549 [17]): inactive
IC50 (MRC5 [18]): < 3.9 nM
IC50 (A549 [19]): > 1000 nM
inhibition (MRC5 [3]): Dose-dependent effect
IC50 (MRC5 [3]): 6.3 nM
Ratio (A549 [20]): 0.65
CI (A549 [21]): >1
Inhibition_index (A549 [22]): 1.71
IC50 [23]: 17 nM
IC50 (MRC5 [24]): 21.6 nM
Inhibition_index (A549 [25]): 5.76
IC50 (A549 [26]): 29 nM
CI (A549 [27]): <1
Inhibition_index (A549 [28]): 4.22
IC50 (A549 [29]): 3.9 nM
inhibition (T-24 [6]): Dose-dependent effect
IC50 [7]: 6.9 nM
CI (MRC5 [30]): 8.15
Inhibition_index (A549 [31]): 1.67
CI (MRC5 [32]): 7.88
CI (MRC5 [33]): 2.73
IC50 (MRC5 [34]): 6.8 nM
CI (A549 [35]): >1
CI (MRC5 [36]): 2.06
Ratio (A549 [37]): 0.1
Ratio (A549 [38]): 0.6
IC50 (A549 [39]): < 3.9 nM
IC50 [40]: 18 nM
IC50 [41]: < 3.9 nM
IC50 (MRC5 [42]): < 3.9 nM
